From ChEMBL document CHEMBL1781876, “Design, synthesis and inhibition activity of a novel cyclic enediyne amino acid conjugates against MPtpA” (Bioorg Med Chem, 2011)

Biological target: T1, Low molecular weight protein-tyrosine phosphatase A (Mycobacterium tuberculosis, UniProt P9WIA1)
T1 sequence (P9WIA1 whole entry): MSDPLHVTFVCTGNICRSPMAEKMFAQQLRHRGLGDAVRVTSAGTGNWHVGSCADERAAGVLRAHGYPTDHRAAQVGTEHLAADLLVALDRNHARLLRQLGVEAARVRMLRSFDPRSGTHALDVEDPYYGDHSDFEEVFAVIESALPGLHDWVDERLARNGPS
Experiment: Non-competitive inhibition of Mycobacterium tuberculosis PTPA using p-nitrophenyl phosphate as substrate by Lineweaver-Burk plot analysis

| SMILES | IC50 [µM] | Ki [µM] |
| --- | --- | --- |
| O=C(O)C1CCCc2ccccc2CCCCNC1=O (racemic) | 236 | 101 |
| O=C(O)/C1=C/C#Cc2ccccc2C#CCCNC1=O | 110 | 22.5 |
